Results: ChEMBL document CHEMBL1157265, “Chaetoglobosin U, a cytochalasan alkaloid from endophytic Chaetomium globosum IFB-E019” (J Nat Prod, 2006)

System: KB
Test: Cytotoxicity against human KB cells after 48 hrs by MTT assay
Format: functional, cell-based

Row | SMILES | IC50 [µM]
1 | C/C1=C\[C@@H](C)C/C=C/[C@H]2[C@@H]3O[C@]3(C)[C@@H](C)[C@H]3[C@H](Cc4c[nH]c5ccccc45)NC(=O)[C@]32C(=O)CCC(=O)C1=O [CHAETOGLOBOSIN C] | 34
2 | CC1=C(C)[C@H]2[C@H](Cc3c[nH]c4ccccc34)NC(=O)[C@]23C(=O)CC[C@H](O)C(=O)/C(C)=C/[C@@H](C)C/C=C/[C@H]3[C@@H]1O [CHAETOGLOBOSIN E] | 40
3 | C/C1=C\[C@@H](C)C/C=C/[C@H]2[C@@H]3O[C@]3(C)[C@@H](C)[C@H]3[C@H](Cc4c[nH]c5ccccc45)NC(=O)[C@]32C(=O)CC[C@H](O)C1=O [CHAETOGLOBOSIN F] | 52
4 | CC1=C(O)C(=O)[C@@H]2CC(=O)[C@@]34C(=O)N[C@@H](Cc5c[nH]c6ccccc56)[C@@H]3[C@H](C)[C@@]3(C)O[C@H]3[C@@H]4/C=C/C[C@H](C)[C@@H]12 [CHAETOGLOBOSIN U] | 16
5 | C/C1=C\[C@@H](C)C/C=C/[C@H]2[C@@H]3O[C@]3(C)[C@@H](C)[C@H]3[C@H](Cc4c[nH]c5ccccc45)NC(=O)[C@]32c2ccc([nH]2)C(=O)C1=O [PENOCHALASIN A] | 48
